Measurements taken from PMC4751996 (Journal of medicinal chemistry, 2015).
Residues, ends and D or L forms follow the SMILES beside them.

Columns and labels:
[1] = tested on: MDA-MB-231 and HCT116 cell lines; experiment: Growth inhibition screen, 3 day exposure, relative DNA content; settings: 72 h; for inhibition at 1 µM: read-out: Drug Effect (avg) (1 μM); for inhibition at 10 µM: read-out: Drug Effect (avg) (10 μM)
[2] = target: T1, hRRM1 (Homo sapiens, UniProt P23921); experiment: Tryptophan fluorescence quenching of hRRM1 at fixed ligand concentration; settings: ligand 50 μM; hRRM1 0.1 mg/mL; excitation 295 nm
T1 sequence (P23921 1-792): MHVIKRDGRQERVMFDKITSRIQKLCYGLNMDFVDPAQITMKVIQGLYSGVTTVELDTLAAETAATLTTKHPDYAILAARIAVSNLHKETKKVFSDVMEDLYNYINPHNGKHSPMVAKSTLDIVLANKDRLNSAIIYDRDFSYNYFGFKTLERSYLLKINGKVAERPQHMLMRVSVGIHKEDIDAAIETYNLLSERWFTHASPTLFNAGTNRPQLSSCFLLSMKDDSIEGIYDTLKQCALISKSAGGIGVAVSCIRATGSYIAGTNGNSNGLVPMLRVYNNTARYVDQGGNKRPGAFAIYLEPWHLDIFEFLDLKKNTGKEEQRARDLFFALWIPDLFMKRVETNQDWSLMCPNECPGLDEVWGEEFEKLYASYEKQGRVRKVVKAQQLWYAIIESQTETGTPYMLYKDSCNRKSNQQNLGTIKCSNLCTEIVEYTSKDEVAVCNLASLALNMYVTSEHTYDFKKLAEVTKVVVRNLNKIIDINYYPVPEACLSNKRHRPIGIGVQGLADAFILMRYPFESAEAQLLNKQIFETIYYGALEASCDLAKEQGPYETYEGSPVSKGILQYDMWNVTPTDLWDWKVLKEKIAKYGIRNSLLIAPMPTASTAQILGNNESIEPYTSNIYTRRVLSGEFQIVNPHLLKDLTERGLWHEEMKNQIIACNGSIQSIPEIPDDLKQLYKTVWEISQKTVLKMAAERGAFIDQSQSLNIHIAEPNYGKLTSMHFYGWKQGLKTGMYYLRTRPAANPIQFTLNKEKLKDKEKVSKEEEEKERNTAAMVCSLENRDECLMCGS

[3] = target: T1, hRRM1; experiment: Gel filtration chromatography of hRRM1 oligomeric state; settings: 50 μM dATP alone

Row | Structure (SMILES) | inhibition at 1 µM [1] | inhibition at 10 µM [1] | % Fluorescence quenching [2] | hexamer to dimer ratio based on integration of the peaks [3]
1 | CCCCCCCCCCCCCCNC(=O)[C@@H](N)CCN [Compound 3] | 7.2% | 69% | – | –
2 | CCOC(=O)C(NC(=O)CN[C@H]1CCCc2sccc21)C(=O)OCC [Compound 2] | -19.9% | 53.1% | – | –
3 | CCC(C)(C)c1ccc(OCCCCNC(=O)c2cc(Oc3ccc([N+](=O)[O-])cc3)c3ccccc3c2O)c(C(C)(C)CC)c1 [Compound 5] | 3.8% | 39.8% | – | –
4 | CC(C)=CCC/C(C)=C/CNC(=O)CNC(c1ccc[nH]1)C(F)(F)F (stereo not shown) [Compound 184612] | – | – | No tryptophan fluorescence quenching | –
5 | CCOC(=O)C[C@@H](CC(=O)NCCN[C@H](C)c1ccc(O)c(C(=O)OC)c1)OC(C)=O [Compound 9] | 9.8% | 9.6% | – | –
6 | Nc1ncnc2c1ncn2[C@H]1C[C@H](O)[C@@H](COP(=O)(O)OP(=O)(O)OP(=O)(O)O)O1 [dATP, deoxyadenosine 5′-triphosphate] | – | – | – | approximately 3 fold
7 | CC(NCCCCCO)c1cc(OCc2ccccc2)cc(OCc2ccccc2)c1 (stereo not shown) [Compound 8] | -7.6% | 3.6% | – | –
8 | CCCCCCCCCCCCCCCC(=O)N[C@@H](CCCCN)C(=O)N[C@@H](CCCCN)C(=O)OC [Compound 10] | -21.9% | -8.9% | – | –
9 | CCCOc1ccc(C(=O)OCCN(CC)CC)cc1NS(=O)(=O)/C=C/c1ccccc1 [Compound 6] | -3.3% | 4.3% | – | –
10 | CC(C)C[C@H](NC(=O)[C@@H]1CCCN1C(=O)[C@H](Cc1cnc[nH]1)NC(=O)[C@@H](NC(=O)[C@H](Cc1ccc(O)cc1)NC(=O)[C@@H](NC(=O)[C@@H](N)CCCNC(=N)N)C(C)C)C(C)C)C(=O)O [Compound 100207] (H-RVYVHPL-OH) | – | – | No tryptophan fluorescence quenching | –
11 | OC(COc1ccc(OCC(O)CN2CCN(C3c4ccccc4-c4ccccc43)CC2)cc1)CN1CCN(C2c3ccccc3-c3ccccc32)CC1 (stereo not shown) [Compound 1] | -39.6% | 88% | – | –
